Publication PMC11640836, “Aminomethylmorpholino Nucleosides as Novel Inhibitors of PARP1 and PARP2: Experimental and Molecular Modeling Analyses of Their Selectivity and Mechanism of Action” (International Journal of Molecular Sciences, 2024)
Read-outs that look alike come from different tables or passages of the source.

What was measured:
PARP1 = biological target: T1, PARP1 (Homo sapiens, UniProt P09874); test: PARP1 autopoly(ADP-ribosyl)ation (autoPARylation) enzyme assay with [32P]NAD+; type: biochemical
T1 construct: made in house; host or cells: insect cells
T1 sequence (P09874 whole entry): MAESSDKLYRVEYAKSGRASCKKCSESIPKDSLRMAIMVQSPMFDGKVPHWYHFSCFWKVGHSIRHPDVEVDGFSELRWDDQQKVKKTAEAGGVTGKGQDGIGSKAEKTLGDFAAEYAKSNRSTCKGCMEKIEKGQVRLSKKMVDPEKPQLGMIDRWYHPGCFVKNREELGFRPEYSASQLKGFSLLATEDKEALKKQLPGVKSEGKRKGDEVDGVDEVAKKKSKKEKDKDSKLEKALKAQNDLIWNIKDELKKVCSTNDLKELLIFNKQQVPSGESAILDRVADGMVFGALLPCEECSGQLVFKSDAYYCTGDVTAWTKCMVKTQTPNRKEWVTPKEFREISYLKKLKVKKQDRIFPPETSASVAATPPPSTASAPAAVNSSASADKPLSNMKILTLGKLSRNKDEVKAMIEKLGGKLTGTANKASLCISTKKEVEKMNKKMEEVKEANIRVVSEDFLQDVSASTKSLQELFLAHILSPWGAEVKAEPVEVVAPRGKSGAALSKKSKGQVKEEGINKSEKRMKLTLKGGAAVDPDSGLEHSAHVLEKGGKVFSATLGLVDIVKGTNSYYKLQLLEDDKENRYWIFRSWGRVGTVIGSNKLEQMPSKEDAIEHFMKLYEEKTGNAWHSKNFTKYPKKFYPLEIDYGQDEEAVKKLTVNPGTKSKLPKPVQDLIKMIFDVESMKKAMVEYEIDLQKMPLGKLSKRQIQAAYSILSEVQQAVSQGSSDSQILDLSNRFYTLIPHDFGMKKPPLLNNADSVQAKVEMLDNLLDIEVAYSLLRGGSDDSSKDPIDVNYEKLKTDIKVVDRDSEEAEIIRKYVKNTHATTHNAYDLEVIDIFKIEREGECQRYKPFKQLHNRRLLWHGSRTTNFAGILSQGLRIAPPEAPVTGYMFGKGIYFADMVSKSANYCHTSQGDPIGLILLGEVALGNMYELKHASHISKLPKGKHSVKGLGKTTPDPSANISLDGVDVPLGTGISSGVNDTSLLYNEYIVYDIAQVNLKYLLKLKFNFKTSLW
Description: (§1) Human recombinant poly(ADP-ribose) polymerase 1 (PARP1) and murine poly(ADP-ribose) polymerase 2 (PARP2) were expressed in insect cells and purified as previously described. Radioactively labeled [^32P]NAD^+ was synthesized from [α-^32P]ATP, according to the previously developed method. The reaction of autopoly(ADP-ribosyl)ation was performed as follows. For PARP1, the reaction mixture contained 50 mM of Tris-HCl, a pH of 8.0, 10 mM of MgCl2, 150 mM of NaCl, 7 mM of β-mercaptoethanol, 2 A260/mL of activated DNA, 0.3 mM of [^32P]NAD^+, and 1 of the tested compounds. The reaction was initiated by adding PARP1 up to 200 nM, and the reaction mixtures were incubated at 37 °C for 2 min. For PARP2, the reaction mixture contained 50 mM of Tris-HCl, a pH of 8.0, 3 mM of spermine, 150 mM of NaCl, 7 mM of β-mercaptoethanol, 2 A260/mL of activated DNA, 0.6 mM of [^32P]NAD^+, and 1 of the tested compounds. The reaction was initiated by adding PARP2 up to 800 nM, and the reaction mixtures were incubated at 37 °C for 5 min. The tested compounds were added at six fixed concentrations, specified for each of them. The reaction was stopped by dropping 10 µL aliquots onto Whatman 1 filter papers soaked in 5% trichloroacetic acid (TCA). The filters were washed 4 times with 150 mL of 5% TCA and dried in the air after the removal of TCA with 90% ethanol. The introduction of radioactivity into the reaction product was quantified using a Typhoon FLA 9500 imager (GE Healthcare, Chicago, IL, USA). The half-maximal inhibitory concentration (IC50) values were determined using a six-point concentration response curve in three independent experiments.

[1] = biological target: T2, PARP2 (supplemented with HPF1 or not) (Mus musculus, UniProt O88554); test: PARP2 inhibition in the absence and presence of HPF1 (automodification, SDS-PAGE); type: biochemical, murine; conditions: 500 nM PARP2, 1 µM HPF1
T2 construct: made in house; host or cells: insect cells (PARP2)
T2 sequence (O88554 whole entry): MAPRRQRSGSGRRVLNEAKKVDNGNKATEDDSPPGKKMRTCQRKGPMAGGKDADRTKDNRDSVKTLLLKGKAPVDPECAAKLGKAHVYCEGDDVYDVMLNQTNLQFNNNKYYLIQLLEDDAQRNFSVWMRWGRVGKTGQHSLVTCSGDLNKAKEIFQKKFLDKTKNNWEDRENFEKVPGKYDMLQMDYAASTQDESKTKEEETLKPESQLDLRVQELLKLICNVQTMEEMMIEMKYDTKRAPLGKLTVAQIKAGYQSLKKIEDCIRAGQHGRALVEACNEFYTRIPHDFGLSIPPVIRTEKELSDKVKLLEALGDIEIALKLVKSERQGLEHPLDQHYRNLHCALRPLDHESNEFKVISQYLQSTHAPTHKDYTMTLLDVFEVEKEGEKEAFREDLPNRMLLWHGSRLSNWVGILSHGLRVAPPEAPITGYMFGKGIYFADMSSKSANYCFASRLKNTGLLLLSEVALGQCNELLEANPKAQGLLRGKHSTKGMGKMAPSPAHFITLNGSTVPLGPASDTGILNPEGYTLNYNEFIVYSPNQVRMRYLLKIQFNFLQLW
Description: PARP1/PARP2 autopoly(ADP-ribosyl)ation was performed in a standard 20 μL reaction mixture containing 50 mM of Tris-HCl, a pH of 8.0, 100 mM of NaCl, 10 mM of MgCl2, 1 mM of DTT, 10 µM of [^32P]NAD^+, 1 µM of gap-DNA (a 32-mer duplex with a medially located 1-nucleotide gap), 500 nM of PARP1/PARP2 (supplemented with 1 µM of HPF1 or not), and an inhibitor of interest at concentrations specified in Figure 4 and Figure S7. The reaction was initiated by adding a mixture of [^32P]NAD^+ and DNA to a protein-inhibitor mixture pre-assembled on ice. After incubating the mixtures at 37 °C for the indicated time periods, the reactions were terminated by the addition of an SDS-PAGE sample buffer and heating for 2 min at 90 °C. The reaction products were analyzed using 10% SDS-PAGE with the subsequent phosphor imaging of a Coomassie brilliant blue stained gel. Protein bands labeled with [^32P]ADP-ribose were quantified using Quantity One 4.6.7 Basic software. The residual activity (%) was determined as the level of PARP automodification in the presence of an inhibitor normalized to the respective level in the control sample containing no inhibitor.

[2] = system: HeLa cell line (cervical cancer); test: Cell culture cytotoxicity assay (EZ4U/MTT), compounds alone and combined with hydrogen peroxide; conditions: for Effect (H2O2 + PARP inhibitor combo) / Combination index (CI): Hela; for Combination index (CI): CompuSyn; for Combination index (CI) with H2O2, as stated in text: different concentrations of H2O2 and inhibitor, Hela cells
Description: The cytotoxicity of the compounds and their combinations with a DNA damaging agent were examined against human cells from the HeLa cell line (cervical cancer) using an EZ4U/MTT colorimetric test (Biomedica, Vienna, Austria). […] The cells were grown in 96-well plates in DMEM medium (Gibco, Thermo Fisher Scientific, Waltham, MA, USA), with 1x GlutaMAX (Gibco, Thermo Fisher Scientific, Waltham, MA, USA), 50 IU/mL penicillin, 50 μg/mL streptomycin (MP Biome-dicals, Santa Ana, CA, USA), and in the presence of 10% fetal bovine serum (Biolot, Saint Petersburg, Russia) in a 5% CO2 atmosphere. After the formation of a 30–50% monolayer, the tested compounds were added to the medium to final concentrations specified in Figure 2 and Figure S4, and the cell culture was monitored for 3 days. […] The combination index (CI) values were calculated using CompuSyn software version 1.0.

PARP2 = biological target: T3, PARP2 (Mus musculus, UniProt O88554); test: PARP2 autopoly(ADP-ribosyl)ation (autoPARylation) enzyme assay with [32P]NAD+; type: biochemical, murine
T3 construct: made in house; host or cells: insect cells
T3 sequence (O88554 whole entry): as above
Description: as §1

[3] = H2O2 150 μM + inhibitor 1000 μM
[4] = H2O2 250 μM + inhibitor 1000 μM

SMILES: Cc1cn([C@H]2CNC[C@@H](CN)O2)c(=O)[nH]c1=O [Compound 8]
- IC50 (PARP1): 10 ± 3 µM
- Impact of HPF1 on the inhibition potency against PARP2 [1]: no impact of HPF1
- Effect (H2O2 + PARP inhibitor combo) ([2]; H2O2 30 μM + inhibitor 100 μM): 0.15
- Combination index (CI) ([2]; H2O2 30 μM + inhibitor 100 μM): 2.596
- Effect (H2O2 + PARP inhibitor combo) ([2]; H2O2 30 μM + inhibitor 1000 μM): 0.46
- Combination index (CI) ([2]; H2O2 30 μM + inhibitor 1000 μM): 0.6254
- Effect (H2O2 + PARP inhibitor combo) ([2]; H2O2 50 μM + inhibitor 100 μM): 0.21
- Combination index (CI) ([2]; H2O2 50 μM + inhibitor 100 μM): 1.707
- Effect (H2O2 + PARP inhibitor combo) ([2]; H2O2 50 μM + inhibitor 1000 μM): 0.59
- Combination index (CI) ([2]; H2O2 50 μM + inhibitor 1000 μM): 0.2634
- Effect (H2O2 + PARP inhibitor combo) ([2]; H2O2 90 μM + inhibitor 100 μM): 0.48
- Combination index (CI) ([2]; H2O2 90 μM + inhibitor 100 μM): 0.375
- Effect (H2O2 + PARP inhibitor combo) ([2]; H2O2 90 μM + inhibitor 1000 μM): 0.68
- Combination index (CI) ([2]; H2O2 90 μM + inhibitor 1000 μM): 0.1724
- Effect (H2O2 + PARP inhibitor combo) ([2]; H2O2 150 μM + inhibitor 100 μM): 0.61
- Combination index (CI) ([2]; H2O2 150 μM + inhibitor 100 μM): 0.2716
- Effect (H2O2 + PARP inhibitor combo) [2, 3]: 0.79
- Combination index (CI) [2, 3]: 0.09406
- Effect (H2O2 + PARP inhibitor combo) ([2]; H2O2 250 μM + inhibitor 100 μM): 0.94
- Combination index (CI) ([2]; H2O2 250 μM + inhibitor 100 μM): 0.01519
- Effect (H2O2 + PARP inhibitor combo) [2, 4]: 0.92
- Combination index (CI) [2, 4]: 0.02575
- Combination index (CI) with H2O2, as stated in text [2]: less than one
- IC50 (PARP2): 133 ± 8 µM

SMILES: NC[C@@H]1CNC[C@H](n2cc(I)c(=O)[nH]c2=O)O1 [Compound 14]
- IC50 (PARP1; 0.3 mM [32P]NAD+, means ±SDs of three independent experiments, read-out: IC50, PARP1 activity in the autoPARylation reaction): 12 ± 2 µM
- Impact of HPF1 on the inhibition potency against PARP2 [1]: no impact of HPF1
- Effect (H2O2 + PARP inhibitor combo) ([2]; H2O2 30 μM + inhibitor 100 μM): 0.46
- Combination index (CI) ([2]; H2O2 30 μM + inhibitor 100 μM): 0.6331
- Effect (H2O2 + PARP inhibitor combo) ([2]; H2O2 30 μM + inhibitor 1000 μM): 0.3
- Combination index (CI) ([2]; H2O2 30 μM + inhibitor 1000 μM): 0.3003
- Effect (H2O2 + PARP inhibitor combo) ([2]; H2O2 50 μM + inhibitor 100 μM): 0.47
- Combination index (CI) ([2]; H2O2 50 μM + inhibitor 100 μM): 0.5789
- Effect (H2O2 + PARP inhibitor combo) ([2]; H2O2 50 μM + inhibitor 1000 μM): 0.32
- Combination index (CI) ([2]; H2O2 50 μM + inhibitor 1000 μM): 0.2452
- Effect (H2O2 + PARP inhibitor combo) ([2]; H2O2 90 μM + inhibitor 100 μM): 0.6
- Combination index (CI) ([2]; H2O2 90 μM + inhibitor 100 μM): 0.1778
- Effect (H2O2 + PARP inhibitor combo) ([2]; H2O2 90 μM + inhibitor 1000 μM): 0.5
- Combination index (CI) ([2]; H2O2 90 μM + inhibitor 1000 μM): 0.04618
- Effect (H2O2 + PARP inhibitor combo) ([2]; H2O2 150 μM + inhibitor 100 μM): 0.68
- Combination index (CI) ([2]; H2O2 150 μM + inhibitor 100 μM): 0.08158
- Effect (H2O2 + PARP inhibitor combo) [2, 3]: 0.61
- Combination index (CI) [2, 3]: 0.01767
- Effect (H2O2 + PARP inhibitor combo) ([2]; H2O2 250 μM + inhibitor 100 μM): 0.82
- Combination index (CI) ([2]; H2O2 250 μM + inhibitor 100 μM): 0.01487
- Effect (H2O2 + PARP inhibitor combo) [2, 4]: 0.84
- Combination index (CI) [2, 4]: 0.00135
- Combination index (CI) with H2O2, as stated in text [2]: less than one
- IC50 (PARP2; 0.6 mM [32P]NAD+, means ±SDs of three independent experiments, read-out: IC50, PARP2 activity in the autoPARylation reaction): 63 ± 9 µM
